From US20240390434A1, “PROBIOTIC ENHANCERS AND USES THEREOF” (Blis Technologies Limited, priority 2021, published 2024)

Key:
Format in all cases: cell-based
[1] = system: representative microorganisms from skin, dental, oral, ENTR diseases; experiment: Dose response assay with dairy free K12 or M18; conditions: 2.5% w/w raffinose vs equal weight percentage of saccharides; pH adjusted
Method: CABCa agar plates containing various concentrations of saccharide were prepared according to the methods described in Method 1. Producer strains were transferred from stock agar plates into 900 μL THB using a fresh cotton swab. A plastic spread plater was cut to approximately 1.2 cm width and then dipped into ethanol and left to air dry to ensure sterility. A 100 μL sample of the producer strain suspension was then dispensed onto the agar surface in a straight line running diametrically across the agar surface in (approximately) 20 μL spots. The spots were spaced approximately 1.5 cm apart from each other. The plastic spreader was then used to evenly distribute the spots across the agar surface in a 1.5 cm wide strip. This step was taken to ensure an even producer streak was inoculated onto the agar surface and provided an approximate measure of the initial inoculum concentration. Separate plastic spreaders were used for samples containing different producer strains. The samples were left to soak into the agar surface until there was no visible liquid remaining on the agar surface (approximately 20 minutes). Following producer streak preparations, the deferred antagonism assay protocol was followed as per Method 2. Results were recorded by measuring the size of the zone of inhibition (ZOI) in mm. […]

[2] = system: bacterial indicator strains; experiment: Split plate inhibitory activity of K12 in commercial powder Daily Defence Junior; conditions: raffinose 2.5% w/w, galactose 0.5% w/w, or combination
Method: Method: Formulations for testing were prepared as follows: • 1. Control: Commercial powder formulation (Daily Defence Junior) containing S. salivarius K12 • 2. Galactose 0.5% w/w was added to the commercial powder and mixed thoroughly to achieve a uniform mixture. • 3. Raffinose 2.5% w/w was added to the commercial powder and mixed thoroughly to achieve a uniform mixture.
The following method was used to measure the inhibitory effect of S. salivarius K12 in the context of the powder formulations. Exactly 40 mL of 50° C. molten CAB agar containing 0.5% calcium carbonate (CABCa) was poured in agar plates (120×120 mm). Once the agar was set upon cooling, it was split in the middle and half of the agar gel was removed. The other half was left on the plate as Blank agar marked as side “A”. Approximately, 0.8 g of each combination (DDJ powder with (1) galactose, (2) raffinose or (3) combination of raffinose and galactose) was mixed with 1 mL of sterile distilled water and vortexed to produce a homogeneous suspension. […] The pH of the producer side was measured and adjusted to 6.5-7.5 by soaking into the agar a solution of 0.5 M sodium carbonate pH 11. […] The zone of inhibition of each indicator strain was measured (in mm) using a ruler. Results were also read using a macroscope to establish presence of small colonies or complete inhibition zones.

M. catarrhalis TW1 = experiment: Deferred antagonism assay, producer S. salivarius M18
Method: (§1) 1-2 producer strain colonies were transferred from a stock plate into 900 μL of suspension solution using a fresh cotton swab. Following this, suspensions were vortexed, and a sample was inoculated onto solid culture media using a fresh cotton swab. The inoculation was a streak that runs diametrically across the agar plate in a 1.5 cm wide strip. The plate was then incubated. Following incubation all visible colonies were removed by swabbing them from the agar surface. The plates were then treated with chloroform by dispensing 2 ml of chloroform onto 4 cm×4 cm piece of cloth and sealing the inverted agar plate on top for 30 minutes. The plates were then air dried for 30 minutes following chloroforming. 1-2 indicator strain colonies were then transferred from a stock plate into complementary suspension solution. The suspensions were then vortexed, and a sample was inoculated onto the same agar surface. These samples were streaked in a perpendicular direction to the initial producer streak.
(§2) Each indicator streak was prepared with fresh a suspension containing cells from a corresponding stock plate containing the indicator strain of interest. Indicator strains suspension samples were transferred using a fresh cotton swab. Results were measured by qualitatively reviewing the subsequent (if any) sizes of the zones of inhibition (ZOI) of indicator strain colony growth. A positive result is when there is a distinctive reduction or complete inhibition of indicator colony growth on the culture medium.
(§3) CABCa agar plates containing various concentrations of saccharide were prepared according to the methods described in Method 1. Producer strains were transferred from stock agar plates into 900 μL THB using a fresh cotton swab. A plastic spread plater was cut to approximately 1.2 cm width and then dipped into ethanol and left to air dry to ensure sterility. A 100 μL sample of the producer strain suspension was then dispensed onto the agar surface in a straight line running diametrically across the agar surface in (approximately) 20 μL spots. The spots were spaced approximately 1.5 cm apart from each other. The plastic spreader was then used to evenly distribute the spots across the agar surface in a 1.5 cm wide strip. This step was taken to ensure an even producer streak was inoculated onto the agar surface and provided an approximate measure of the initial inoculum concentration. Separate plastic spreaders were used for samples containing different producer strains. The samples were left to soak into the agar surface until there was no visible liquid remaining on the agar surface (approximately 20 minutes). Following producer streak preparations, the deferred antagonism assay protocol was followed as per Method 2. Results were recorded by measuring the size of the zone of inhibition (ZOI) in mm.
(§4) A dose response assay was carried out according to method 3 above, except a 1.2 cm streak was used. For the individual saccharide testing the pH of the producer streak was adjusted after the growth of producer to change the acidic conditions.

S. mutans OMZ175 = experiment: Deferred antagonism assay, producer S. salivarius K12
Method: as §1, §2, §3, §4
(§5) A deferred antagonism assay was conducted using K12 or M18 raw ingredient suspended in Todd Hewitt broth (THB). This was spread as a 1.2 cm streak containing approximately 1-2×10^6 cfu down the middle of a CABCa control or CABCa galactose supplemented test plate. After 18 hrs growth at 37° C. with 5% CO2, bacterial growth was removed, and the pH of the agar in the initial streak was measured and adjusted to a pH of 6.5-7.5 using 0.5M sodium carbonate pH11 before sterilizing the agar surface using chloroform vapor. Bacterial test strains were suspended in i-THB before being swabbed across the plates perpendicular to the initial streak. Plates were incubated for a further 18 hrs incubation at 37° C. with 5% CO2 before measuring (mm) any zones of inhibition for each test strain, […]

ENTR indicator strains = experiment: Dose response deferred antagonism assay, producer M18: average over indicators
indicator strains = experiment: Deferred antagonism assay, producer S. salivarius K12: total strains inhibited; conditions: for Total stains inhibited / Total strains inhibited / Total number of strains inhibited: K12
Method: as §1, §2, §3, §4, §5

## O=C[C@H](O)[C@@H](O)[C@@H](O)[C@H](O)CO [Galactose, D-galactose]
[1]
  inhibitory action of dairy free K12 or M18: enhanced inhibitory activity
[2]
  inhibitory activity of S. salivarius K12 in commercial powder vs control: increased
M. catarrhalis TW1; 1.0% (w/v) galactose
  increase in zone of inhibition M. catarrhalis TW1: 12 mm
M. catarrhalis TW1; 1.5% (w/v) galactose
  increase in zone of inhibition M. catarrhalis TW1: 23 mm
S. mutans OMZ175; Streptococcus mutans, OMZ175, K12, Galactose 0.5% w/w, read-out: Size of zone inhibition normalised to control, S. mutans OMZ175
  zone of inhibition at 0.5 % strength: 10 mm
S. mutans OMZ175; Streptococcus mutans, OMZ175, K12, Galactose 1.25% w/w, read-out: Size of zone inhibition normalised to control, S. mutans OMZ175
  zone of inhibition at 1.25 % strength: 10 mm
S. mutans OMZ175; Streptococcus mutans, OMZ175, K12, Galactose 1.7% w/w, read-out: Size of zone inhibition normalised to control, S. mutans OMZ175
  zone of inhibition at 1.7 % strength: 0 mm
S. mutans OMZ175; Streptococcus mutans, OMZ175, K12, Galactose 2.5% w/w, read-out: Size of zone inhibition normalised to control, S. mutans OMZ175
  zone of inhibition at 2.5 % strength: 0 mm
S. mutans OMZ175; Streptococcus mutans, OMZ175, K12, Galactose 3.3% w/w, read-out: Size of zone inhibition normalised to control, S. mutans OMZ175
  zone of inhibition at 3.3 % strength: 0 mm
S. mutans OMZ175; Streptococcus mutans, OMZ175, K12, Galactose 5% w/w, read-out: Size of zone inhibition normalised to control, S. mutans OMZ175
  zone of inhibition at 5 % strength: 0 mm
ENTR indicator strains; 1.5% galactose
  Average ZOI change: 11.5 mm
Indicator strains; Galactose 0.5% w/w
  Total stains inhibited: 5/6
Indicator strains; Galactose 1.25% w/w
  Total stains inhibited: 5/7
Indicator strains; Galactose 1.7% w/w
  Total stains inhibited: 4/7
Indicator strains; Galactose 2.5% w/w
  Total stains inhibited: 4/7
Indicator strains; Galactose 3.3% w/w
  Total stains inhibited: 2/7
Indicator strains; Galactose 5% w/w
  Total stains inhibited: 0/7
Indicator strains; saccharide 3.3% w/v
  Total strains inhibited: 0/3
Indicator strains; saccharide range 0.83%-3.3% w/v
  Total strains inhibited: 1/3
Indicator strains; only at 0.5% w/w Galactose
  inhibitory activity (potency) and spectrum of Blis K12 and Blis M18: enhanced inhibitory activity

## OC[C@H]1O[C@H](OC[C@H]2O[C@H](O[C@]3(CO)O[C@H](CO)[C@@H](O)[C@@H]3O)[C@H](O)[C@@H](O)[C@@H]2O)[C@H](O)[C@@H](O)[C@H]1O [Raffinose, D-(+) Raffinose pentahydrate]
[1]
  inhibitory action of dairy free K12 or M18: enhanced inhibitory action
[2]
  inhibitory activity of S. salivarius K12 in commercial powder vs control: increased
M. catarrhalis TW1; 1.5% (w/v) raffinose
  change in zone of inhibition size M. catarrhalis TW1: 31 mm
M. catarrhalis TW1; Raffinose 1.7% wt
  Zone of inhibition M. catarrhalis TW1: 7 mm
M. catarrhalis TW1; Raffinose 1.7% wt, pH adjusted
  Zone of inhibition M. catarrhalis TW1: 0 mm
M. catarrhalis TW1; Raffinose 2.5% wt
  Zone of inhibition M. catarrhalis TW1: 17 mm
M. catarrhalis TW1; Raffinose 2.5% wt, pH adjusted
  Zone of inhibition M. catarrhalis TW1: 0 mm
M. catarrhalis TW1; Raffinose 3.3% wt
  Zone of inhibition M. catarrhalis TW1: 0 mm
M. catarrhalis TW1; Raffinose 3.3% wt, pH adjusted
  Zone of inhibition M. catarrhalis TW1: 0 mm
M. catarrhalis TW1; Raffinose 5% wt
  Zone of inhibition M. catarrhalis TW1: 15 mm
M. catarrhalis TW1; Raffinose 5% wt, pH adjusted
  Zone of inhibition M. catarrhalis TW1: 0 mm
M. catarrhalis TW1; Raffinose 10% wt
  Zone of inhibition M. catarrhalis TW1: 0 mm
M. catarrhalis TW1; Raffinose 10% wt, pH adjusted
  Zone of inhibition M. catarrhalis TW1: 0 mm
S. mutans OMZ175; 2.5, 5 and 10% w/v raffinose added
  sensitivity of S. mutans OMZ175 to K12: sensitive
S. mutans OMZ175; K12, Raffinose 1.7% wt
  Zone of inhibition S. mutans OMZ175: 11 mm
S. mutans OMZ175; K12, Raffinose 1.7% wt, pH adjusted
  Zone of inhibition S. mutans OMZ175: 7 mm
S. mutans OMZ175; K12, Raffinose 2.5% wt
  Zone of inhibition S. mutans OMZ175: 16 mm
S. mutans OMZ175; K12, Raffinose 2.5% wt, pH adjusted
  Zone of inhibition S. mutans OMZ175: 13 mm
S. mutans OMZ175; K12, Raffinose 3.3% wt
  Zone of inhibition S. mutans OMZ175: 16 mm
S. mutans OMZ175; K12, Raffinose 3.3% wt, pH adjusted
  Zone of inhibition S. mutans OMZ175: 14 mm
S. mutans OMZ175; K12, Raffinose 5% wt
  Zone of inhibition S. mutans OMZ175: 16 mm
S. mutans OMZ175; K12, Raffinose 5% wt, pH adjusted
  Zone of inhibition S. mutans OMZ175: 15 mm
S. mutans OMZ175; K12, Raffinose 10% wt
  Zone of inhibition S. mutans OMZ175: 15 mm
S. mutans OMZ175; K12, Raffinose 10% wt, pH adjusted
  Zone of inhibition S. mutans OMZ175: 10 mm
S. mutans OMZ175; K12, saccharide 3.3% w/v
  Inhibitory activity of S. salivarius K12 in presence of saccharides, S. mutans OMZ175: ✓
S. mutans OMZ175; K12, saccharide range 2.5%-10% w/v
  Inhibitory activity of S. salivarius K12 in presence of saccharides, S. mutans OMZ175: ✓
ENTR indicator strains; 1.5% raffinose
  Average ZOI change: 22.16 mm
Indicator strains; Raffinose 1.7% wt
  Total number of strains inhibited: 6
Indicator strains; Raffinose 1.7% wt, pH adjusted
  Total number of strains inhibited: 5
Indicator strains; Raffinose 2.5% wt
  Total number of strains inhibited: 7
Indicator strains; Raffinose 2.5% wt, pH adjusted
  Total number of strains inhibited: 6
Indicator strains; Raffinose 3.3% wt
  Total number of strains inhibited: 5
Indicator strains; Raffinose 3.3% wt, pH adjusted
  Total number of strains inhibited: 5
Indicator strains; Raffinose 5% wt
  Total number of strains inhibited: 6
Indicator strains; Raffinose 5% wt, pH adjusted
  Total number of strains inhibited: 6
Indicator strains; Raffinose 10% wt
  Total number of strains inhibited: 6
Indicator strains; Raffinose 10% wt, pH adjusted
  Total number of strains inhibited: 6
Indicator strains; saccharide 3.3% w/v
  Total strains inhibited: 3/3
Indicator strains; saccharide range 2.5%-10% w/v
  Total strains inhibited: 3/3
Indicator strains; Raffinose 1.7, 2.5, 3.3 and 5%, K12 or M18
  number of the indicators tested inhibited: at least 7
Indicator strains; Raffinose (2.5%)
  inhibitory spectrum of K12 or M18: inhibit several ENTR, dental and skin pathogens and S. salivarius strains
